Experiments:
KB cells [1] = experiment: In vitro PDT cell killing (Cytotox-96), antigen-negative cells; assay type: cell-based, human; details: 30 min incubation, laser light 2 min, 1.4 J/cm^2, cell kill assay after 48 hours
Experimental: (§1) • 1. […] The flask was incubated at 37° C., 5% CO2 for 15 mins or until the cells had detached from the flask. The cells were then placed in a 50 ml Falcon tube and the trypsin deactivated by adding 15 ml DMEM or McCoy's medium. • 3. Cells (20 μl) were taken out of the tube and placed on a haemocytometer for counting. The remaining cells were harvested at 1800 g for 10 min at room temperature and the pellet gently resuspended in 1 ml of DMEM or McCoy's medium. The cells were thoroughly resuspended and a further 19 ml of DMEM or McCoy's medium added. The cells were diluted in DMEM or McCoy's medium accordingly to give 2×10^6 cells/ml. Cells (50 μl) were then added to each well of a 96 well plate and incubated overnight at 37° C. and 5% CO2. • 4. […] Cells were washed once with PBS and 50 μl of the conjugate added to wells in quadruplicate. Control wells were also included (wells with conjugate added but not exposed to light, and wells with neither conjugate added nor exposed to light). […] Cells were incubated in the conjugate or free PS (concentration varies) for 30 min at 37° C., 5% CO2 and then washed 3 times with PBS. […] The PBS was removed from each well and 100 μl of DMEM or McCoy's medium added. The plates were loosely wrapped in foil, but covered adequately so that no ambient light could enter.

[2] = tested on: vision loss associated with AMD; details: PDT compared to the placebo control; cited from earlier work
SKOV3 cells = experiment: In vitro PDT cell killing (Cytotox-96), antigen-positive cells; assay type: cell-based, human; details: 30 min incubation, laser light 2 min, 1.4 J/cm^2, cell kill assay after 48 hours
Experimental: as §1

[3] = in vivo; cited from earlier work
Bladder cancer = details: clinical PDT; cited from earlier work
Barrett's mucosal cancer = details: clinical PDT; cited from earlier work
[4] = tested on: Chest wall recurrence in breast cancer; details: clinical PDT; cited from earlier work
Oral cancer = details: clinical PDT, over 5-53 months; cited from earlier work
Her-2 receptor (human) = Her-2 receptor (human) (UniProt P04626); experiment: cell-based or functional assay
KB cells [5] = experiment: Immunofluorescent microscopy, HER-2-negative cells; assay type: cell-based, human; details: 1 hour incubation; images and emission spectra
Experimental: FIG. 24—Immunofluorescent microscopy of C6.5-PPa photo-immunoconjugate Antigen negative KB cells (A-D) or antigen positive SKOV3 cells (E-J) were incubated with free PPa or C6.5-PPa photo-immunoconjugate for 1 hour. Images and emission spectra were recorded.
• 1. Round coverslips were washed in ethanol and rinsed in PBS. Coverslips were then placed in 12-well tissue culture plates. • 2. SKOV3 cells were trypsinised and washed with PBS. The cell pellet was resuspended in McCoy's media and cells were seeded onto the coverslips at 2×10^5 cells/ml. The cells were incubated overnight at 37° C. and 5% CO2. • 3. The coverslips with the adherent cells were rinsed carefully in PBS and either C6-PPa or PBS was added to the wells. The cells were incubated at 37° C. and 5% CO2 for 30 minutes after which time they were washed carefully with PBS. • 4. The cells were fixed onto the coverslips by incubating in 2 ml 4% paraformaldehyde for 60 minutes at room temperature. After this time, the coverslips were washed with PBS and inverted cell-side down onto glass slides. The edges of the coverslips were then sealed using nail varnish. • 5. Fluorescence imaging was then performed using an Ar+ laser (418 nm) as excitation source, using a Leica laser scanning confocal microscope, images are shown in FIGS. 20 and 24, and the emission spectrum is shown in FIGS. 21 and 24.

[6] = Fluorescence of conjugates in PBS (excitation 410 nm, emission 680 nm); assay type: physicochemical; details: measured in PBS buffer
Experimental: • 1. Serial dilutions (halving concentrations) of the conjugates were made in PBS and the fluorescence was measured at an excitation wavelength of 410 nm and an emission wavelength of 680 nm. • 2. These were compared to free PPa in PBS. Examples are shown for c6.5 scFv-PPa (FIG. 11) and MFE scFv-PPA (+/− benzoic acid) (FIG. 12)

[7] = tested on: Basal cell cancer of skin; details: clinical PDT, topical; cited from earlier work
[8] = tested on: Barrett's oesophagus cancer; details: clinical PDT, systemic; cited from earlier work

For “benzoporphyrin derivative mono acid [Verteporfin (Visudyne™)]”, the IC50 (KB cells [1]) is given as 10 µM, the “recovering vision loss associated with AMD” value [2] is given as “more effective” and the IC50 (SKOV3 cells) is given as 15.3 µM.
In the case of Oc1cccc(-c2c3nc(c(-c4cccc(O)c4)c4ccc([nH]4)c(-c4cccc(O)c4)c4nc(c(-c5cccc(O)c5)c5ccc2[nH]5)CC4)C=C3)c1 [Foscan™, meta-tetrahydroxyphenyl chlorin], the skin photosensitivity [3] is given as “about 2 weeks”.
For Hematoporphyrin derivative, the “alive after 5 years” value (Bladder cancer) is given as 30% alive after 5 years and the complete response (Bladder cancer) is given as 74% complete response,.
For porfimer sodium, the “conversion to normal epithelium” value (Barrett's mucosal cancer) is given as 75% conversion to normal and the tumours (Barrett's mucosal cancer) is given as “eliminated”.
In the case of Dihematoporphyrin ether, the complete response [4] is listed as 20% complete response,, the partial response [4] is listed as 45% partial response and the complete response (Oral cancer) is listed as 87% complete response.
“C6.5 scFv-Verteporfin (Visudyne™) conjugate” gave an IC50 of in vitro PDT cell killing on antigen-positive SKOV3 cells (Her-2 receptor (human)) of 2.2 µM.
With Pyropheophorbide a [PPa] the “uptake of PPa, KB cells vs SKOV3 cells” value (KB cells [5]) was “over 2 fold” and the “fluorescence / photophysical properties” value [6] was “does not fluoresce significantly”.
In the case of NCC(=O)CCC(=O)O [ALA, 5-aminolaevulinic acid], the complete response [7] is given as 90% complete response and the High-grade dysplasia [8] is given as “erradicated in all patients”.

— patent publication US8703427B2, “Biological materials and uses thereof” (PhotoBiotics Limited, priority 2005, dated 2014)
